Legend:
[1] = target: T1, fibroblast growth factor-1 (FGF-1) (Homo sapiens, UniProt P05230); experiment: Structural interaction with FGF-1 from diffraction of complex crystals; type: binding; conditions: electron density contoured at 1σ; acetoxyl groups kept when bound
T1 construct: host or cells: added to Balb/c 3T3 fibroblast cultures
Procedure: As of the diffraction from complex crystals of FGF-1: 2-acetoxy-5-hydroxybenzenesulfonic acid, FGF-1: 5-acetoxy-2-hydroxybenzenesulfonic acid and FGF-1: 2,5-diacetoxybenzenesulfonic acid, the complex structures were calculated and represented. In FIGS. 20, 21 and 22, representing the surface of the protein cloured according to its electrostatic potential (light grey: negative charge, dark grey: positive charge, white: areas with no charge), the interaction form of the 2-acetoxy-5-hydroxybenzenesulfonic acid, 5-acetoxy-2-hydroxybenzenesulfonic acid and 2,5-diacetoxybenzenesulfonic acid, respectively, with the FGF-1 may be observed.

mouse glioma C6 cells = experiment: Proliferation of glioma C6 cells, crystal violet; type: cell-based; conditions: 500 μM, 48 hours, potassium salts, p<0.001
Procedure: The cell line used was that of mouse glioma C6 cells. Once attached, the cells were treated o not treated (controls) with (5A-2HBS) (500 μM) or (2A-5HBS) (500 μM) and they were allowed to proliferate during 48 hours. After that, the proliferation of glioma cells was evaluated by staining the fixed cells with crystal violet. The number of cells is proportional to the amount of retained dye, which was spectrophotometrically determined by measuring absorbance at 595 nm after removing the dye from the cells.

[2] = target: T1, fibroblast growth factor-1 (FGF-1); experiment: Inhibition of fibroblast mitogenesis induced by FGF-1 in quiescent Balb/c 3T3 cultures; type: cell-based; conditions: quiescent cultures of Balb/c 3T3 fibroblasts; potassium salts, 2-acetoxy-5-hydroxybenzenesulfonate as calcium salt
Procedure: The evaluated compounds were used in the form of potassium salt, except in the first case in which calcium salt was used. The experiments were carried out as described in Fernández-Tornero C et al. J Biol Chem, 2003.

[3] = test system: rabbit subcutaneous fat preadipocytes; experiment: Proliferation of subcutaneous fat preadipocytes, crystal violet; type: cell-based; conditions: 72 hours
Procedure: The primary cultures of rabbit preadipocytes were obtained from the inguinal fat of New Zealand rabbits. Once the fat is removed, it is processed by mechanical disaggregation and enzymatic digestion with 0.075% type I collagenase (Gibco BRL, Paisley, Scotland, RU) for 30 minutes at 37°. The mature adipocytes are separated, removed by centrifugation (300×g, 5 min) and the cell sediment is selected. Then, the mononuclear cells with low cell density are isolated by density gradient centrifugation with Ficoll-Paque (Amersham Biosciences, Uppsala, Sweden). Once the low density mononuclear cells are obtained, they are seeded in a 75 cm^2 culture flask and cultured in an incubator at 37° C. with air containing 5% CO2, in an Eagle medium modified by Dulbecco (DMEM) (Gibco) with 10% of bovine fetal serum (Gibco) and 0.1% of antibiotic-antimicotic (Gibco). The culture medium is replaced 24 hours later to remove the cells present in the supernatant, and to select the cells adhered to the culture flask. […]
The rabbit preadipocytes proliferation experiments were carried out in 24-well plates. […] The proliferation of preadipocytes was evaluated 72 hours later, and at that moment the cells were fixed with 1% glutaraldehyde. The cellular proliferation was evaluated using the crystal violet method, by measuring the absorbance at a wave length of 595 nm.

actinic keratosis = experiment: Topical treatment of actinic keratosis lesions in patients; type: in vivo, human; conditions: for actinic keratosis: 2.5% by weight emulsion, twice a day, two lesions in the same patient (scalp)
Excerpt: An emulsion containing 2.5% by weight of 2,5-dihydroxybenzenesulfonic acid was used to treat two lesions of actinic keratosis in the same patient, as shown in FIGS. 4 and 5. […] Calcium salt of 2,5-dihydroxybenzenesulfonic acid was used.
(§1) In this study, 2,5-dihydroxybenzenesulfonic acid, potassium salt, formulated as 5% by weight in the form of cream has been used, since this type of formulation is a habitual procedure for topical treatments of the skin. Distilled water has been used as the aqueous phase of the cream. The oil phase thereof may comprise cetyl alcohol, stearyl alcohol or vaseline. Span (sorbitan monooleate) is an effective emulsifier to make the cream.
Active principle: 2,5-dihydroxybenzenesulfonic acid, potassium salt, 5% by weight.
Excipients: cetyl alcohol (2.5%), stearyl alcohol (2.5%), liquid vaseline (30%), white soft vaseline (20%), sorbitan monooleate (5%) and distilled water (q.s. to 100 g).

[4] = test system: cell line of preadipocytes 3T3L1; experiment: Adipogenesis assay in preadipocytes, Oil Red O staining; type: cell-based
Procedure: The preadipocytes were seeded in a 6 well plate where they grew up to the confluence In a standard culture medium [Dulbecco's Essential Medium (DEM)], supplemented with 1.5 g/L of sodium bicarbonate, non essential aminoacids and 10% bovine fetal serum. […] The culture medium was renewed every two days. After seven days, the differentiation to adipocytes was initiated in the six wells by the addition of dexametasone ([…]), 3-isobutyl-1-methylxanthine (0.5 mM) and insuline (160 nM) during two days, followed by the substitution of the culture medium by another culture medium containing insuline (160 nM) during five days. […] The culture medium was renewed every two days.
12 days later, the adipogenesis was determined by staining with Oil Red O to check the cytoplasmic accumulation of triglycerides. The cells were washed with phosphate buffer (PBS), fixed with 4% paraformaldehyde and stained during thirty minutes with Oil Red O. Isopropanol was used to remove the dye from the cells to quantify the accumulation of lipids; the absorbance thereof was measured at 510 nm in a spectrophotometer.

seborrheic keratosis = experiment: Topical treatment of seborrheic keratosis; type: in vivo, human
Excerpt: (§2) Topical treatment with the above described cream (twice a day for 11 days) of human skin (basal conditions shown in FIG. 2A) results in a reduction of seborrheic keratosis (big circle) as well as of viral warts (small circle), as shown in FIG. 2B.
Another example of the effect of 2,5-dihydroxybenzenesulfonate on seborrheic keratosis is shown in FIG. 3, wherein the seborrheic keratosis is reduced due to the topical treatment on the affected area for 4 weeks, twice a day, with an emulsion containing the 2,5-dihydroxybenzenesulfonic acid, 2.5% by weight.

hair growth = experiment: Effect of topical cream on hair growth; type: in vivo, human; conditions: 5% cream, potassium salt, twice a day for 3 months
Excerpt: 2,5-dihydroxybenzenesulfonic acid, potassium salt, formulated in the form of cream was used and its composition was the same as that used in example 1.

viral warts = experiment: Topical treatment of viral warts; type: in vivo, human; conditions: 5% cream, twice a day for 11 days
Excerpt: as §2

human photoaged skin = experiment: Topical treatment of human photoaged skin with cream; type: in vivo; conditions: 5% cream, potassium salt, twice a day for 3 months
Excerpt: as §1
Active principle: 2,5-dihydroxybenzenesulfonic acid, potassium salt, 5% by weight. Excipients: cetyl alcohol (2.5%), stearyl alcohol (2.5%), liquid vaseline (30%), white soft vaseline (20%), sorbitan monooleate (5%) and distilled water (q.s. to 100 g).
Lightening of skin hyperpigmentation after the application of 2,5-dihydroxybenzenesulfonic acid may justify the use thereof to treat melanic dyschromia with hyperpigmentation as occurs, among other pathologies, in the Mongolian spot, the nevus of Ota, the nevus of Ito, the nevus of Becker, ephelides (freckles), the lentigo malign melanoma, the café-au-lait macules or the melasma (chloasma).

T1 sequence (P05230 whole entry, species assumed): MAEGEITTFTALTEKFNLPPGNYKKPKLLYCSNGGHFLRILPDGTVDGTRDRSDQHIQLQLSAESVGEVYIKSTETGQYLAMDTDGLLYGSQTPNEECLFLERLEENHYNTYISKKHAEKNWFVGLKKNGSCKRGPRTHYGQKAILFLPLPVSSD

CC(=O)Oc1ccc(O)c(S(=O)(=O)[O-])c1.[K+] [5A-2HBS, potassium 5-acetoxy-2-hydroxybenzenesulfonate]
location of the compound bound to FGF-1 in the complex crystal [1]: located at a site very close to the site that, as described, is occupied by the 2,5-dihydroxybenzenesulfonic acid | proliferation of glioma cells (absorbance at 595 nm) (mouse glioma C6 cells): caused the inhibition of the proliferation | FGF-1 induced mitogenesis [2]: Inhibition of FGF-1 mitogenesis was observed

O=S(=O)([O-])c1cc(O)ccc1O.[K+] [potassium 2,5-dihydroxybenzenesulfonate]
FGF-1 induced mitogenesis [2]: Inhibition of the mitogenesis

CC(=O)Oc1ccc(O)cc1S(=O)(=O)O [2A-5HBS, 2-acetoxy-5-hydroxybenzenesulfonic acid]
location of the compound bound to FGF-1 in the complex crystal [1]: located at a site very close to the site that, as described, is occupied by the 2,5-dihydroxybenzenesulfonic acid | concentration as of which a significant effect on preadipocyte proliferation is obtained [3]: 100 µM | proliferation of preadipocytes (absorbance at 595 nm) ([3]; DHBS 10 to 100 μM, 2A-5HBS 10 to 500 μM, concentration dependent): significantly inhibited | proliferation of glioma cells (absorbance at 595 nm) (mouse glioma C6 cells): caused the inhibition of the proliferation | FGF-1 induced mitogenesis [2]: Inhibition of FGF-1 mitogenesis was observed

O=S(=O)(O)c1cc(O)ccc1O [2,5-dihydroxybenzenesulfonic acid]
actinic keratosis lesion in the ear (actinic keratosis; 5% cream, topical, after 12 days): reduction of the actinic keratosis | actinic keratosis lesion in the ear (actinic keratosis; 5% cream, topical, after 15 days): the lesion was cleared | actinic keratosis lesion in the nose (actinic keratosis; 5% cream, topical, after 30 days): reduction of the actinic keratosis | number of preadipocytes differentiated in adipocytes ([4]; 3T3-L1 cells, 25 μM, during 12 hours (so in the source)): very significant reduction | seborrheic keratosis (seborrheic keratosis; 2.5% by weight emulsion, twice a day for 4 weeks, facial): reduced | seborrheic keratosis (seborrheic keratosis; 5% cream, twice a day for 11 days): reduction in the seborrheic keratosis | hair in the area of application (hair growth): disappearance of hair in the area of application | viral warts (viral warts): reduction | actinic lentigo areas of photoaged skin (human photoaged skin): disappearance of actinic lentigo areas | wrinkles of photoaged skin (human photoaged skin): reduction of the wrinkles

calcium 2,5-dihydroxybenzenesulfonate
actinic keratosis (actinic keratosis; after 4 weeks): the effect was even more evident | actinic keratosis (actinic keratosis; after 15 days): clearly reduced

CC(=O)Oc1ccc(OC(C)=O)c(S(=O)(=O)[O-])c1.[K+] [DABS, potassium 2,5-diacetoxybenzene sulfonate]
location of the compound bound to FGF-1 in the complex crystal [1]: located at a site very close to the site that, as described, is occupied by the 2,5-dihydroxybenzenesulfonic acid | FGF-1 induced mitogenesis [2]: Inhibition of FGF-1 mitogenesis was observed

O=C(O)c1cc(O)ccc1O [gentisic acid, 2,5-dihydroxybenzoic acid]
accumulation of triglycerides (percentage of absorbance at 510 nm) versus untreated cells ([4]; 50 μM, p<0.05): significantly smaller | differentiation of the preadipocytes and adipogenesis ([4]; 3T3-L1 preadipocytes, 50 μM, two weeks): inhibits the differentiation of the preadipocytes and the adipogenesis

From patent US9018195B2, “Use of 2,5-dihydroxybenzene sulfonic acid compounds for treating skin photoaging” (AmDerma Pharmaceuticals, LLC, priority 2004, dated 2015)
